Measurements: patent US20250160327A1, “USE OF CHROMENE OR CHROMANE DERIVATIVES AS HERBICIDAL AGENTS” (ECOLE POLYTECHNIQUE, priority 2022, published 2025)

System: Arabidopsis thaliana ecotype Col-0 seedlings
Test: Phytotoxicity test on Arabidopsis thaliana seedlings in hydroponics, visual analysis of chlorosis
Type: in vivo
Details: for herbicidal activity: at the concentration tested (125 pM), 48 h; for Activity after 48h: herbicidal activity, concentration of 125 pM, 48 h after application, seedlings at the cotyledon stage, max 1% DMSO
Method: Biological tests have been carried out under axenic conditions on Arabidopsis thaliana ecotype Col-0 seedlings cultured in hydroponics at the cotyledon stage. Sterilised seeds have been sown in microplates (10 seeds per well containing 200 μL of distilled water) and cultured for 10-13 days at 22° C. under a 16 h/8 h (day/night) photoperiod lighting. The treatment has been carried out by replacing the culture medium with an equivalent volume of water containing the molecule to be tested dissolved in DMSO. The maximum DMSO concentration in the treated wells was 1% by volume. A control has therefore been set up with the presence of DMSO at this concentration. The phytotoxicity of the treatment has been evaluated after 48 h of culture, by visual analysis of the chlorosis induced.
By way of comparison, tests have also been carried out under the same conditions as for compounds (Ia1), (Ia2), (Ia3) and (IC1), but with two comparative compounds not forming part of the invention: • a compound (2) including a diphenol ring in place of the chromene ring, and • a compound (3) including a chromene ring but not including an -L-Ar group. All compounds have been tested at a concentration of 125 pM.
Herbicidal activity is indicated by A for Active in the event that the plant is killed, i.e. when both cotyledons have lost all their green coloration, 48 h after application of the product.
The absence of herbicidal activity is indicated by “N” for Not active, in the case where no biological activity is observed

SMILES: Oc1cc(O)cc(CCc2ccccc2)c1 [Compound 2]
- herbicidal activity: no herbicidal activity
- Activity after 48h: N

SMILES: Cc1cc(O)c2c(c1)OC(C)(C)C=C2 [Compound 3]
- herbicidal activity: no herbicidal activity
- Activity after 48h: N
